Here are results for 30 compounds from patent publication US20230348369A1 (Cytokinetics, Inc., priority 2020, published 2023).

Read-outs that look alike come from different tables or passages of the source.

The experiment has as its target human NAMPT (Homo sapiens, UniProt P43490). Briefly: Human recombinant enzyme assay (NMN fluorescence biochemical assay, activation of NAMPT). As to the method:
Compounds described herein were assayed for their ability to stimulate the synthesis of nicotinamide mononucleotide (NMN) by the enzyme NAMPT. The human recombinant enzyme assay measures the activation of the enzyme activity by compounds using recombinant enzyme and substrates in a buffered cell-free system. The assay conditions closely mimic cellular environments. Dose responses were measured using an assay to detect the formation of nicotinamide mono-nucleotide. All experiments were performed in the 384-well format. […] Enzyme reactions were initiated with the addition of 10 μL of a solution containing the substrates. The final assay conditions were as follows: 6 nM human NAMPT, 2.5 mM ATP, 20 μM PRPP and 150 μM nicotinamide in 50 mM HEPES, pH 7.2, 1 mM DTT, 1 mM CHAPS 50 mM NaCl, 100 mM MgCl2. Following an incubation of 60 min at ambient temperature, 10 μL of 20% acetophenone in DMSO was added, followed by 10 μL of 2 M KOH and 40 μL of formic acid. The plates were read for fluorescence (Excitation/Emission=355 nm/460 nm) using an EnVision plate reader after 40 mins of incubation at ambient temperature.

[1] abbreviates: Table A, human recombinant NAMPT, NMN formation, 60 min.
Where [2] appears, read: Table A, human recombinant NAMPT, NMN formation, 60 min, read-out: EC50 Human.

Chain of human NAMPT (P43490 whole entry): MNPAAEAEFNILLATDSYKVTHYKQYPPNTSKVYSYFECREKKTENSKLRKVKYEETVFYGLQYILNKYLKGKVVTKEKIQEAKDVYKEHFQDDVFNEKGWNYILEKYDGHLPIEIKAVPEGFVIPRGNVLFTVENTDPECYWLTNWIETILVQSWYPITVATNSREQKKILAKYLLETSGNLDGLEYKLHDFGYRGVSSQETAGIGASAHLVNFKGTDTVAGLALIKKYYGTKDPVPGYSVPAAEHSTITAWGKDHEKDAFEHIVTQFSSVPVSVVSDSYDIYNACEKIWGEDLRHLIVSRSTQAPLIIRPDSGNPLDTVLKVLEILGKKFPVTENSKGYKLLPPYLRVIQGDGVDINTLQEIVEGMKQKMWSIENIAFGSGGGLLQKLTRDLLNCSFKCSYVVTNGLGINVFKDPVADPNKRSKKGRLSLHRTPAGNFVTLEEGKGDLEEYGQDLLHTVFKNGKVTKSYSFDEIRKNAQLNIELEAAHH

Turning to `COc1ccc(CNC(=O)NC2CC3(C2)CN(C(=O)c2cccc(OC)c2)C3)cc1` [Compound 176], under setting [1], the “AC1.4 Human” value turned out to be 2.0 µM. The concentration for a half-maximal effect (EC50) (commonly the concentration that produces a half-maximal response) under setting [2] is 21.9 µM.

As for `O=C(NCCCCC1CCN(C(=O)c2ccccc2-c2nnn[nH]2)CC1)NCc1ccc(Cl)cc1` [Compound 315, 1-(4-(1-(2-(1H-tetrazol-5-yl)benzoyl)piperidin-4-yl)butyl)-3-(4-chlorobenzyl)urea], the “AC1.4 Human” value under setting [1] amounted to 0.9 µM. Under setting [2], the EC50 turned out to be 2 µM.

Turning to `COc1ccc(CNC(=O)NC2CC3(C2)CC(C(=O)N2CCCc4cc(F)ccc42)C3)cc1` (stereo not drawn) [Compound 101, 1-(6-(6-fluoro-1,2,3,4-tetrahydroquinoline-1-carbonyl)spiro[3.3]heptan-2-yl)-3-(4-methoxybenzyl)urea], the “AC1.4 Human” value under setting [1] amounted to 0.2 µM. The half-maximal effective concentration (EC50) under setting [2] was 2.7 µM.

For the compound `O=C(NCCCCCNC(=O)c1ccccn1)NCc1ccc(Cl)cc1` [Compound 279, N-(5-(3-(4-chlorobenzyl)ureido)pentyl)picolinamide], the “AC1.4 Human” value under setting [1] was 1.8 µM. The concentration giving a half-maximal response (EC50) under setting [2] came to 11.8 µM.

Consider `COc1ccc(CNC(=O)NC2CC3(C2)CC(C(=O)NC2CCCc4ccc(F)cc42)C3)cc1` (stereo in doubt) [Compound 99, (R)-N-(7-fluoro-1,2,3,4-tetrahydronaphthalen-1-yl)-6-(3-(4-methoxybenzyl)ureido)spiro[3.3]heptane-2-carboxamide], for which the “AC1.4 Human” value under setting [1] turned out to be 5.1 µM. Further, under setting [2], the EC50 stood at 3.9 µM.

For `COc1ccc(CNC(=O)NC2CC3(C2)CC(C(=O)N[C@H](C)c2ccccc2)C3)cc1` (stereo partly drawn) [Compound 45, (R)-6-(3-(4-methoxybenzyl)ureido)-N-(1-phenylethyl)spiro[3.3]heptane-2-carboxamide], the concentration giving a half-maximal response (EC50) worked out at 51.7 µM. Further, the “AC1.4 Human” value under setting [1] was determined as 6.6 µM.

`COc1ccc(CNC(=O)NC2CC3(C2)CC(C(=O)N2CCS(=O)(=O)CC2)C3)cc1` (stereo not drawn) [Compound 232, 1-(6-(1,1-dioxoidothiomorpholine-4-carbonyl)spiro[3.3]heptan-2-yl)-3-(4-methoxybenzyl)urea]: the “AC1.4 Human” value under setting [1] worked out at 3.6 µM. For the same compound, the EC50 under setting [2] was 37.8 µM.

With `Cc1ccc(C(=O)NC(C)C2CC3(CC(NC(=O)NCc4ccc(Cl)cc4)C3)C2)cn1` (stereo not drawn) [Compound 255, N-(1-(6-(3-(4-chlorobenzyl)ureido)spiro[3.3]heptan-2-yl)ethyl)-6-methylnicotinamide], the “AC1.4 Human” value under setting [1] was found to be 2.5 µM. The 50% effective concentration (EC50) under setting [2] was 6.5 µM.

On to `COc1ccc(CNC(=O)NC2CC3(C2)CN(C(=O)c2cccc(N4CCCCC4)c2)C3)cc1` [Compound 190, 1-(4-methoxybenzyl)-3-(2-(3-(piperidin-1-yl)benzoyl)-2-azaspiro[3.3]heptan-6-yl)urea], for which, under setting [1], the “AC1.4 Human” value was determined as 1.8 µM. For the same compound, under setting [2], the EC50 amounted to 34 µM.

Take `COc1ccc(CNC(=O)NC2CC3(C2)CN(C(=O)c2cccc(N(C)C)c2)C3)cc1` [Compound 178, 1-(2-(3-(dimethylamino)benzoyl)-2-azaspiro[3.3]heptan-6-yl)-3-(4-methoxybenzyl)urea]: the “AC1.4 Human” value under setting [1] amounted to 3.1 µM. Moreover, under setting [2], the concentration giving a half-maximal response (EC50) was determined as 21.4 µM.

With `COc1ccc(CNC(=O)NC2CC3(C2)CC(Oc2cccnc2)C3)cc1` (stereo not drawn) [Compound 344, 1-(4-methoxybenzyl)-3-(6-(pyridin-3-yloxy)spiro[3.3]heptan-2-yl)urea], the “AC1.4 Human” value under setting [1] worked out at 3.1 µM. In addition, under setting [2], the EC50 worked out at 34.9 µM.

Regarding `COc1ccc(CNC(=O)NC2CC3(C2)CN(C(=O)c2cccc(-n4cccc4)c2)C3)cc1` [Compound 189, 1-(2-(3-(1H-pyrrol-1-yl)benzoyl)-2-azaspiro[3.3]heptan-6-yl)-3-(4-methoxybenzyl)urea], the “AC1.4 Human” value under setting [1] was 1.4 µM. In addition, under setting [2], the EC50 is 21.3 µM.

On to `Cc1cc(N2CC[C@]3(C2)C[C@@H](NC(=O)NCc2ccc(Cl)cc2)C3)ccn1` [Compound 171, 1-(4-chlorobenzyl)-3-((2r,4s)-6-(2-methylpyridin-4-yl)-6-azaspiro[3.4]octan-2-yl)urea], for which, under setting [1], the “AC1.4 Human” value came to 17.3 µM. The 50% effective concentration (EC50) under setting [2] was 24.9 µM.

Consider `O=C(NCc1ccc(Cl)cc1)NC1CC2(CC(Cc3cnccn3)C2)C1` (stereo not drawn) [Compound 331, 1-(4-chlorobenzyl)-3-(6-(pyrazin-2-ylmethyl)spiro[3.3]heptan-2-yl)urea], for which, under setting [1], the “AC1.4 Human” value stood at 2.2 µM. In addition, under setting [2], the EC50 turned out to be 1.3 µM.

With `COc1ccc(CNC(=O)NC2CC3(C2)CC(C(=O)N2CCCc4c(F)cccc42)C3)cc1` (stereo not drawn) [Compound 105, 1-(6-(5-fluoro-1,2,3,4-tetrahydroquinoline-1-carbonyl)spiro[3.3]heptan-2-yl)-3-(4-methoxybenzyl)urea], the “AC1.4 Human” value under setting [1] was found to be 0.1 µM. The EC50 under setting [2] turned out to be 2.2 µM.

On to `O=C(NCc1ccc(Cl)cc1)NC1CC2(C1)CC(C(O)c1ccccc1)C2` (stereo not drawn) [Compound 328, 1-(4-chlorobenzyl)-3-(6-(hydroxy(phenyl)methyl)spiro[3.3]heptan-2-yl)urea], for which, under setting [1], the “AC1.4 Human” value was determined as 1.2 µM. Besides, under setting [2], the EC50 was found to be 4.3 µM.

`O=C(NCc1cn[nH]c1)NC1CC2(C1)CC(NC(=O)c1ccccc1)C2` (stereo not drawn) [Compound 17, N-(6-(3-((1H-pyrazol-4-yl)methyl)ureido)spiro[3.3]heptan-2-yl)benzamide]: under setting [1], the “AC1.4 Human” value was 17.6 µM. Besides, the EC50 under setting [2] turned out to be 50.5 µM.

Turning to `O=C(NCCCCC1CCN(C(=O)Cc2ccccc2)CC1)NCc1ccc(Cl)cc1` [Compound 291, 1-(4-chlorobenzyl)-3-(4-(1-(2-phenylacetyl)piperidin-4-yl)butyl)urea], under setting [1], the “AC1.4 Human” value worked out at 1.9 µM. For the same compound, the 50% effective concentration (EC50) under setting [2] is 4.6 µM.

On to `NC(=O)c1ccc(CNC(=O)NC2CC3(C2)CN(C(=O)c2cccc(N4CCCC4)c2)C3)cc1` [Compound 222, 4-((3-(2-(3-(pyrrolidin-1-yl)benzoyl)-2-azaspiro[3.3]heptan-6-yl)ureido)methyl)benzamide], for which the “AC1.4 Human” value under setting [1] worked out at 0.2 µM. In addition, the EC50 under setting [2] worked out at 28.6 µM.

With `Cc1ccccc1C(=O)N1CCC(CCCCNC(=O)NCc2cnco2)CC1` [Compound 320, 1-(4-(1-(2-methylbenzoyl)piperidin-4-yl)butyl)-3-(oxazol-5-ylmethyl)urea], under setting [1], the “AC1.4 Human” value turned out to be 0.1 µM. Also, under setting [2], the EC50 amounted to 1.4 µM.

Turning to `O=C(NCc1ccc(Cl)cc1)NC1CC2(CC(CNC(=O)C3CCS(=O)(=O)CC3)C2)C1` (stereo not drawn) [Compound 243, N-((6-(3-(4-chlorobenzyl)ureido)spiro[3.3]heptan-2-yl)methyl)tetrahydro-2H-thiopyran-4-carboxamide 1,1-dioxide], the “AC1.4 Human” value under setting [1] is 1.5 µM. The EC50 under setting [2] stood at 4.2 µM.

On to `COC(=O)N1CCN(C(=O)C2CC3(CC(NC(=O)NCc4ccc(Cl)cc4)C3)C2)CC1` (stereo not drawn) [Compound 233, Methyl 4-(6-(3-(4-chlorobenzyl)ureido)spiro[3.3]heptane-2-carbonyl)piperazine-1-carboxylate], for which the “AC1.4 Human” value under setting [1] turned out to be 0.9 µM. Moreover, the EC50 under setting [2] amounted to 1 µM.

As to `COc1ccc(CNC(=O)NC2CC3(C2)CN(S(=O)(=O)c2ccccc2Cl)C3)cc1` [Compound 116, 1-(2-((2-chlorophenyl)sulfonyl)-2-azaspiro[3.3]heptan-6-yl)-3-(4-methoxybenzyl)urea], the EC50 worked out at 51.3 µM. The “AC1.4 Human” value under setting [1] came out at 8.0 µM.

On to `O=C(NCCCCCNC(=O)c1ccccc1F)NCc1ccc(Cl)cc1` [Compound 280, N-(5-(3-(4-chlorobenzyl)ureido)pentyl)-2-fluorobenzamide], for which the “AC1.4 Human” value under setting [1] came to 0.7 µM. Under setting [2], the EC50 turned out to be 2.6 µM.

For `CS(=O)(=O)c1cccc(C(=O)NC2CC3(CC(NC(=O)NCc4ccc(Cl)cc4)C3)C2)c1` (stereo not drawn) [Compound 195, N-(6-(3-(4-chlorobenzyl)ureido)spiro[3.3]heptan-2-yl)-3-(methylsulfonyl)benzamide], under setting [1], the “AC1.4 Human” value was 17.1 µM. Further, under setting [2], the EC50 stood at 23.5 µM.

Consider `Cc1ccccc1C(=O)N1CCC(CCCCNC(=O)NCc2ccc(C(N)=O)cc2)CC1` [Compound 321, 4-((3-(4-(1-(2-methylbenzoyl)piperidin-4-yl)butyl)ureido)methyl)benzamide], for which, under setting [1], the “AC1.4 Human” value was 0.1 µM. The EC50 under setting [2] amounted to 2.1 µM.

As to `CN(Cc1ccccc1)C(=O)CCCCCNC(=O)NCc1ccc(Cl)cc1` [Compound 269, N-benzyl-6-(3-(4-chlorobenzyl)ureido)-N-methylhexanamide], under setting [1], the “AC1.4 Human” value stood at 0.7 µM. Moreover, the EC50 under setting [2] came out at 5.1 µM.

For the compound `COc1ccc(CNC(=O)NC2CC3(C2)CC(C(=O)NC2CC(CO)c4ccccc42)C3)cc1` (stereo not drawn) [Compound 93, N-(3-(hydroxymethyl)-2,3-dihydro-1H-inden-1-yl)-6-(3-(4-methoxybenzyl)ureido)spiro[3.3]heptane-2-carboxamide], the “AC1.4 Human” value under setting [1] is 6.3 µM. Under setting [2], the EC50 stood at 34.8 µM.

Consider `COc1ccc(CNC(=O)NC2CC3(C2)CC(C(=O)NCc2ccccn2)C3)cc1` (stereo not drawn) [Compound 56, 6-(3-(4-methoxybenzyl)ureido)-N-(pyridin-2-ylmethyl)spiro[3.3]heptane-2-carboxamide], for which, under setting [1], the “AC1.4 Human” value stood at 9.0 µM. Further, the EC50 under setting [2] turned out to be 47.7 µM.

For `NC(=O)c1ccc(CNC(=O)NC2CC3(C2)CN(C(=O)c2cncc(N4CCCC4)c2)C3)cc1` [Compound 223, 4-((3-(2-(5-(pyrrolidin-1-yl)nicotinoyl)-2-azaspiro[3.3]heptan-6-yl)ureido)methyl)benzamide], the “AC1.4 Human” value under setting [1] was 0.2 µM. In addition, under setting [2], the EC50 is 38.5 µM.
